Data on three compounds can be found in patent publication US9702005B2, “Hepatitis B viral variants with reduced susceptibility to nucleoside analogs and uses thereof” (priority 2002, dated 2017).

Each structure is given as a SMILES string. Where only a bound is given, the exact number is not on record here.

Assay [1] is described as follows: ALT in patients on treatment. Format: in vivo, human. The protocol: (§1) Patient A, a person was initially referred for evaluation of thrombocytopenia and hepatosplenomegaly. At this time the patient had abnormal LFT's (ALT 67 U/L, normal <55) and the HBV DNA was 61 pg/ml (231 days prior to the start of treatment). The patient was HBsAg and HBeAg positive. The ALT's fluctuated between 50-70 IU/L from (−231 to −35 days pretreatment). ADV was commenced on Day 0 in a clinical trial on 30 mg/day. HBV DNA levels were reduced with ADV treatment. The ADV treatment was reduced to 10 mg/day (144 days post-treatment). There was a problem with the randomization treatment protocol. The patient was on antiviral treatment for 1 month only during the second year of the treatment period. The study was completed on Day 679 post ADV treatment. The patient was not on ADV treatment until the open label ADV was recommenced on Day 875 from the start of the initial ADV treatment. This second period of ADV treatment was given for 108 days (day 983 post initial ADV treatment). […] At Day 983, ADV treatment was stopped and the patient was treated with LMV.
(§2) Patient B is a liver transplant patient. The patient has been on both sequential and combination antiviral therapy including HBIG, FCV+HBIG, LMV+HBIG, LMV, LMV+GCV, LMV+FCV+GCV, LMV+GCV and finally LMV+ADV. The patient has been on long term ADV+LMV treatment for over 795 days. Patient C, is a person. Prior to ADV treatment the patient had abnormal LFT's (ALT 240 IU/L, normal <55) and the HBV DNA was 2×10^7 copies/ml. ADV was commenced on Day 0 in a clinical trial on 10 mg/day for two years. The average ALT during the two year clinical trial period ws 114 IU/L. However, the ALT was rising and at 630 days after the start of ADV treatment the ALT remained high 407 IU/L. Open label ADV was commenced on Day 668 from the start of the initial ADV treatment. This second period of ADV treatment was given for […]. […] The peak ALT during open label ADV treatment was 517 IU/L (Day 738). The next day (Day 739), ADV treatment was stopped and the patient was treated with LMV.

For assay [2], the system named is HBV. Briefly: Hepatitis B viral DNA levels in patients on treatment (capture hybridization assay). The format is in vivo, human. The settings on record: for HBV DNA copies/ml: open label ADV. The protocol:
as §1, §2
Hepatitis B surface antigen (HBsAg), hepatitis B e antigen (HBeAg), anti-HBe and hepatitis B core antigen (HBcAg) specific IgG and IgM were measured using commercially available immunoassays (Abbott Laboratories, North Chicago, Ill., USA). Hepatitis B viral DNA levels were measured using a capture hybridization assay according to the manufacturer's directions (Digene Hybrid Capture II, Digene Diagnostics Inc., Beltsville, Md.). The manufacturers stated cut-off for detecting HBV viremia in clinical specimens was 0.7×10^6 copies/ml or 2.5 pg/ml, [Hendricks et al., Am J Clin Pathol 104: 537-46, 1995]. HBV DNA levels can also be quantitated using other commercial kits such as Cobas amplification HBV monitor kit (Roche).

Another assay relates to HBV rt A181T/N236T/N238D. The experiment in a line: In vitro drug susceptibility, recombinant HBV/baculovirus in HepG2 cells, rt A181T/N236T/N238D. Format: cell-based, hepatitis B virus. The protocol: (§3) The sensitivity/resistance profile of HBV mutants to ADV was examined in vitro using recombinant HBV/baculovirus. The procedure for analyzing the resistance profile is outlined in the following Examples 12-20.
(§4) Sf21 insect cells were maintained in supplemented Grace's insect medium further supplemented with 10% v/v heat-inactivated fetal bovine serum (Gibco BRL, Gaithersburg, Md.) in humidified incubator at 28° C. with CO2. HepG2 cells were maintained in minimal essential medium supplemented with 10% v/v heat-inactivated fetal bovine serum (MEM-FBS). HepG2 cells were grown in humidified 37° C. incubators at 5% v/v CO2.
(§5) The recombinant HBV/baculovirus system used for antiviral testing has been previously described (Delaney et al., Antimicrob Agents Chemother 45(6): 17054013, 2001). In brief, the recombinant transfer vector was created by excising a fragment containing the 1.3X HBV genome construct and cloning it into the multiple cloning region of a baculovirus vector pBlueBac4.5 (Invitrogen, Carlsbad, Calif.). Point mutations were created by site directed mutagenesis using the commercial kits according to the manufacturer's specifications (QuikChange, Stratagene). HBV/baculovirus recombinant clones encoding the reverse transcriptase mutations rtA181T/N236T/N238D and […] in combination with the precore mutation at G1896A (pcW28 stop) or wild-type with respect to codon pcW28, were prepared by site-directed mutagenesis. The nucleotide sequence of the plasmid and the point mutations generated by site directed mutagenesis were confirmed by sequencing using the ABI Prism Big Dye Terminator Cycle Sequencing Ready Reaction Kit according to the manufacturer's specifications (Perkin Elmer, Cetus Norwalk, Conn.).
Purified recombinant transfer vector and linear AcMNPV baculovirus DNA were co-transfected into Sf21 cells using the BacNBlue transfection kit from Invitrogen (Carlsbad, Calif.); recombinant viruses were isolated by plaque assay according to the manufacturer's instructions. A series of recombinant viruses were amplified from isolated plaques by infecting 100-mm dishes of Sf21 cells. Viral DNA was extracted from amplified viruses using standard procedures. Purified viral DNA was digested with restriction enzymes and then fractionated by electrophoresis in a 1% […] agarose gel. Southern blotting was performed to determine which virus isolates contained the intact 1.3 HBV construct. A Boehringer Mannheim Random Prime DNA Labeling kit (Indianapolis, Ind.) was used to generate [P^32]-radiolabeled probes. A full-length double-stranded HBV genome was used as a template for all radiolabeled probes. […]

The next assay relates to HBV rt N236T/N238D. The experiment in a line: In vitro drug susceptibility, recombinant HBV/baculovirus in HepG2 cells, rt N236T/N238D. The format is cell-based, hepatitis B virus. As to the method: as §3, §4
(§6) The recombinant HBV/baculovirus system used for antiviral testing has been previously described (Delaney et al., Antimicrob Agents Chemother 45(6): 17054013, 2001). In brief, the recombinant transfer vector was created by excising a fragment containing the 1.3X HBV genome construct and cloning it into the multiple cloning region of a baculovirus vector pBlueBac4.5 (Invitrogen, Carlsbad, Calif.). […] The nucleotide sequence of the plasmid and the point mutations generated by site directed mutagenesis were confirmed by sequencing using the ABI Prism Big Dye Terminator Cycle Sequencing Ready Reaction Kit according to the manufacturer's specifications (Perkin Elmer, Cetus Norwalk, Conn.). […]

Assay [3] has as its system HBV. Particulars: phase II studies, 30 mg daily dose, over 12 weeks; cited from earlier work.
Assay [4] deals with Wild-type (pPC) HBV reference laboratory strain (genotype D subtype ayw). The experiment in a line: In vitro drug susceptibility, recombinant HBV/baculovirus in HepG2 cells, wild-type. Format: cell-based, hepatitis B virus. The protocol: as §3, §4, §5
Purified recombinant transfer vector and linear AcMNPV baculovirus DNA were co-transfected into Sf21 cells using the BacNBlue transfection kit from Invitrogen (Carlsbad, Calif.); recombinant viruses were isolated by plaque assay according to the manufacturer's instructions. […]

The next assay relates to HBV rt L180M/M204V. The experiment in a line: In vitro drug susceptibility, recombinant HBV/baculovirus in HepG2 cells, rt L180M/M204V. The format is cell-based, hepatitis B virus. As to the method:
as §3, §4, §6

Consider `CC(C)(C)C(=O)OCOP(=O)(COCCn1cnc2c(N)ncnc21)OCOC(=O)C(C)(C)C` [ADV, adefovir dipivoxil], for which the ALT in assay [1] (Patient A, open label ADV, day 983 (end ADV)) is recorded as 65 IU/L; in assay [1] (Patient C, ADV 10 mg/day clinical trial, day 29), 160 IU/L; in assay [1] (Patient C, ADV 10 mg/day clinical trial, day 630) it was 407 IU/L; in assay [1] (Patient C, open label ADV, day 701), 226 IU/L; in assay [1] (Patient C, open label ADV, day 730), 361 IU/L. The “ALT (peak during open label ADV)” value in assay [1] (Patient C, open label ADV, day 738) was 517 IU/L. For the same compound, in assay [1] (Patient C, two year clinical trial period, ADV 10 mg/day), the “average ALT” value was 114 IU/L. The “HBV DNA levels” value in the assay with HBV [2] (Patient A, ADV commenced Day 0, 30 mg/day) is listed as “reduced”. The “HBV DNA copies/ml” value is on record as 1.55 × 10^6 copies/ml with HBV [2] (Patient A, day 904 post-ADV treatment); 2.97 × 10^6 copies/ml with HBV [2] (Patient A, day 932); 1.76 × 10^6 copies/ml with HBV [2] (Patient A, day 959); 1.64 × 10^6 copies/ml with HBV [2] (Patient A, day 983 (end ADV)); 1.5 × 10^7 copies/ml in the assay with HBV [2] (Patient C, day 701); 3.7 × 10^6 copies/ml with HBV [2] (Patient C, day 730). Moreover, the “fold increase in IC50” value with HBV rt A181T/N236T/N238D (rtA181T also present (triple mutant), readout not stated) is reported as “five”; in the assay with HBV rt N236T/N238D (rt N236T/N238D mutation, readout not stated) it was “twenty-three”. Moreover, the “mean decrease in viremia” value with HBV [3] was 4 log10.

Consider `Nc1ncnc2c1ncn2CCOCP(=O)(O)O` [Adefovir, 9-[phosphonyl-methoxyethyl]-adenine], for which the “In vitro Susceptibility IC50 (fold change from wild-type), Real-time PCR” value in assay [4] (Real-time PCR) was 1 fold; in the assay on HBV rt A181T/N236T/N238D (Real-time PCR, rt A181T/N236T/N238D), 5.1 fold; in the assay with HBV rt N236T/N238D (Real-time PCR, rt N236T/N238D), 23 fold. The “In vitro Susceptibility IC50 (fold change from wild-type), Southern Blot” value in assay [4] is 1 fold; with HBV rt A181T/N236T/N238D (rt A181T/N236T/N238D) it was 7.3 fold; with HBV rt L180M/M204V, 0.9 fold.

For `Nc1ccn([C@@H]2CS[C@H](CO)O2)c(=O)n1` [Lamivudine, (-)-β-2'-deoxy-3'-thiacytidine], the ALT in assay [1] (Patient B, day -8 (S6), pre-ADV on LMV) came to 427 IU/L. Further, the results for the “In vitro Susceptibility IC50 (fold change from wild-type), Southern Blot” value (in assay [4]; in the assay with HBV rt A181T/N236T/N238D (rt A181T/N236T/N238D); with HBV rt L180M/M204V) were 1 fold, >100 fold and >2500 fold, respectively.
